Reference: PMC5564600 (Oncotarget, 2017)
Where two headings read alike, the source gives them in different places.

How the values were obtained:
Assay in all cases: biochemical
Assay type in all cases: binding
[1] = target: T1, panel of 442 kinases (Homo sapiens, UniProt P51813); details: BMX; for remaining activity at 1 µM: read-out: % of control at 1 µM
T1 construct: purchased Ambit Biosciences (scanMAXX KINOMEscan)
T1 sequence (P51813 1-675): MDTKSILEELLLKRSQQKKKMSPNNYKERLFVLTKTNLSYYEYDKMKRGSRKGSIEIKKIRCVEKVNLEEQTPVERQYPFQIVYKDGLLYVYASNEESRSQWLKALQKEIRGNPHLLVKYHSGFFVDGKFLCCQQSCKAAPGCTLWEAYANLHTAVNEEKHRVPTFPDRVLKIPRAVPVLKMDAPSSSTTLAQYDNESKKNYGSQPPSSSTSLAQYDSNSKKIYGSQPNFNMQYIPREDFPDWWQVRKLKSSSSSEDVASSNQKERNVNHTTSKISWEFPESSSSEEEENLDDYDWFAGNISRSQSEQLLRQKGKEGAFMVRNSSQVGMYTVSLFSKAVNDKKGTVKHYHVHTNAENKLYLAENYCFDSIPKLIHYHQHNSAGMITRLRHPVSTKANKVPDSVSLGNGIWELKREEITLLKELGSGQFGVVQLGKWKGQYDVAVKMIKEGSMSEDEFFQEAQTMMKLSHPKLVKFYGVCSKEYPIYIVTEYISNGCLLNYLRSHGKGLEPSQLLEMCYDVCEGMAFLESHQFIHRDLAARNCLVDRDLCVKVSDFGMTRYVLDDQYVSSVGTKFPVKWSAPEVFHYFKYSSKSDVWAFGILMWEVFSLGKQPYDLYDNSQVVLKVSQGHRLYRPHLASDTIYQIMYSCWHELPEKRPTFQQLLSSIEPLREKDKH

[2] = target: T2, panel of 442 kinases (Homo sapiens, UniProt P31751); details: AKT2; for remaining activity at 1 µM: read-out: % of control at 1 µM
T2 construct: purchased Ambit Biosciences (scanMAXX KINOMEscan)
T2 sequence (P31751 whole entry): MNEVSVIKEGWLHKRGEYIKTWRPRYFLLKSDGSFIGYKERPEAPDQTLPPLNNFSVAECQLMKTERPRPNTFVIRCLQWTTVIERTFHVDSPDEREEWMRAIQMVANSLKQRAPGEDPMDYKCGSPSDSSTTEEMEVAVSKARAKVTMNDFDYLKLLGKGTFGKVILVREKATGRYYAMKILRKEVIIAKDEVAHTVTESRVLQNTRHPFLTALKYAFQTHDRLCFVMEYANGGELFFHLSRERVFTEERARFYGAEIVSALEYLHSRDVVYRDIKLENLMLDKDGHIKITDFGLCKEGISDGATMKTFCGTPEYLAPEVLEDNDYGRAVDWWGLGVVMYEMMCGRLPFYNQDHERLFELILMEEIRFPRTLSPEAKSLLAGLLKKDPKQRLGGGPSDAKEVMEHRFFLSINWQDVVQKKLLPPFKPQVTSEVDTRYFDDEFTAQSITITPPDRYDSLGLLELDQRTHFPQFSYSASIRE

[3] = target: T3, panel of 442 kinases (Homo sapiens, UniProt Q16816); details: kinase PHKG1; for remaining activity at 1 µM: read-out: % of control at 1 µM
T3 construct: purchased Ambit Biosciences (scanMAXX KINOMEscan)
T3 sequence (Q16816 whole entry): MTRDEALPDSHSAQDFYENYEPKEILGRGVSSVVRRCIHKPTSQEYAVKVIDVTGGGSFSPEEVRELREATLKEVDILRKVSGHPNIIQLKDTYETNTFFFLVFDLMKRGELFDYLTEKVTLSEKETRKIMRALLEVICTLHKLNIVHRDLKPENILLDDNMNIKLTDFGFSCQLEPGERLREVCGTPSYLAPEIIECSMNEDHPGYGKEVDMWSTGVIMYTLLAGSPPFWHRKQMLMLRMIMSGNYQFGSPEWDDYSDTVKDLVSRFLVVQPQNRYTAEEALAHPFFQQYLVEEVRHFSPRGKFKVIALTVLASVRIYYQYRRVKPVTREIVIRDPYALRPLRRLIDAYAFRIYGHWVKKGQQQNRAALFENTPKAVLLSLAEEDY

[4] = target: T4, panel of 442 kinases (Homo sapiens, UniProt Q86V86); details: kinase PIM3; for remaining activity at 1 µM: read-out: % of control at 1 µM
T4 construct: purchased Ambit Biosciences (scanMAXX KINOMEscan)

[5] = target: T5, panel of 442 kinases (Homo sapiens, UniProt P21127); details: CDC2L1; for remaining activity at 1 µM: read-out: % of control at 1 µM
T5 construct: purchased Ambit Biosciences (scanMAXX KINOMEscan)
T5 sequence (P21127 whole entry): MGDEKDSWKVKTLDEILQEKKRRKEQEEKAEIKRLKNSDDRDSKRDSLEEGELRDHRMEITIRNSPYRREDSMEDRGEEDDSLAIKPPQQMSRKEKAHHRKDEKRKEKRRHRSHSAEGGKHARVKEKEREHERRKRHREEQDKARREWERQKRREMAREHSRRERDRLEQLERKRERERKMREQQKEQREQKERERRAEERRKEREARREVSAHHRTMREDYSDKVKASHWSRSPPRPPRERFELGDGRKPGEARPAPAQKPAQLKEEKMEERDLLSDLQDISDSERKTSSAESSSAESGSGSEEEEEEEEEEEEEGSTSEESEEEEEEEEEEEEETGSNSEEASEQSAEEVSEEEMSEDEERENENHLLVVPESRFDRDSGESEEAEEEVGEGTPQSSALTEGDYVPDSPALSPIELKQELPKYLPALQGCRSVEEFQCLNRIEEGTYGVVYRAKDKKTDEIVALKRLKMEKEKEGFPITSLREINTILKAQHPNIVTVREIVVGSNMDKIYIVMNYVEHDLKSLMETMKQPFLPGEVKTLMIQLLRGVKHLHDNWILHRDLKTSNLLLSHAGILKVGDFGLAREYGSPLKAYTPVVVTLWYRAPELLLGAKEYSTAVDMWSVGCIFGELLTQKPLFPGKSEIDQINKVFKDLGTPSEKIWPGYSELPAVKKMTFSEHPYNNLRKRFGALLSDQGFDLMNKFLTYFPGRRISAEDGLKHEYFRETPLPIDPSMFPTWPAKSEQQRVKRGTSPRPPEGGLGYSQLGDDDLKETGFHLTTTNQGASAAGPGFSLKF

[6] = target: T6, panel of 442 kinases (Homo sapiens, UniProt P00519); details: for remaining activity at 1 µM: read-out: % of control at 1 µM; for remaining activity at 10 µM: read-out: % of control at 10 µM
T6 construct: purchased Ambit Biosciences (scanMAXX KINOMEscan)
T6 sequence (P00519 whole entry): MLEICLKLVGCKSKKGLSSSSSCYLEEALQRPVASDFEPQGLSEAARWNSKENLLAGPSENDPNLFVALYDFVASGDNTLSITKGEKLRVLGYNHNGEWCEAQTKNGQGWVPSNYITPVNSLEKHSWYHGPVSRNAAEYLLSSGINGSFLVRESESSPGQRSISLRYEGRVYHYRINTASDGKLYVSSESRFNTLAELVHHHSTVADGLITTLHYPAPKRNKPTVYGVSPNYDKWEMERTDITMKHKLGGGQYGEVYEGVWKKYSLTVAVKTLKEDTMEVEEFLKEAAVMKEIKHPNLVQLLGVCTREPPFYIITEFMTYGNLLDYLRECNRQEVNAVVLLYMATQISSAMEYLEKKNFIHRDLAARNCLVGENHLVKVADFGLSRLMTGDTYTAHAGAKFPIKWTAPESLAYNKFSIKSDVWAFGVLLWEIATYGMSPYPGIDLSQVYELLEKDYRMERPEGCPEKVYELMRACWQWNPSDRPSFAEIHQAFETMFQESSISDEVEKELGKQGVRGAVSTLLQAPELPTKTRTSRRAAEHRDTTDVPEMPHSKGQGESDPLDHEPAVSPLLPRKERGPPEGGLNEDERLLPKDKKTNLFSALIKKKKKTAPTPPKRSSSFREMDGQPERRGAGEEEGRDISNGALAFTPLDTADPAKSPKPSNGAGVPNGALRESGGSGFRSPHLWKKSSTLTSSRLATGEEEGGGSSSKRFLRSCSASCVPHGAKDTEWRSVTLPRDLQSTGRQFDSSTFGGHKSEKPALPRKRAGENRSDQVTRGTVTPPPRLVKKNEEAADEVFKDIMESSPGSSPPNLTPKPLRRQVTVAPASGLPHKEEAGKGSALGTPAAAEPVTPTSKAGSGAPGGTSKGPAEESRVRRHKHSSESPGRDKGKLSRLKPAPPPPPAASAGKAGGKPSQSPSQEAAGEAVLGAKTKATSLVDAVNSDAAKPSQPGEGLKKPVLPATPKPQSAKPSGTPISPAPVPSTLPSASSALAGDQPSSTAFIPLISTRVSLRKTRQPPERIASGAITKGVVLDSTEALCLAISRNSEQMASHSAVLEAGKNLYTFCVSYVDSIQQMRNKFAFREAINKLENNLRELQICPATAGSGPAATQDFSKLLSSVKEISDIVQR

[7] = target: T7, panel of 442 kinases (Homo sapiens, UniProt P51957); details: kinase NEK4; for remaining activity at 1 µM: read-out: % of control at 1 µM
T7 construct: purchased Ambit Biosciences (scanMAXX KINOMEscan)
T7 sequence (P51957 whole entry): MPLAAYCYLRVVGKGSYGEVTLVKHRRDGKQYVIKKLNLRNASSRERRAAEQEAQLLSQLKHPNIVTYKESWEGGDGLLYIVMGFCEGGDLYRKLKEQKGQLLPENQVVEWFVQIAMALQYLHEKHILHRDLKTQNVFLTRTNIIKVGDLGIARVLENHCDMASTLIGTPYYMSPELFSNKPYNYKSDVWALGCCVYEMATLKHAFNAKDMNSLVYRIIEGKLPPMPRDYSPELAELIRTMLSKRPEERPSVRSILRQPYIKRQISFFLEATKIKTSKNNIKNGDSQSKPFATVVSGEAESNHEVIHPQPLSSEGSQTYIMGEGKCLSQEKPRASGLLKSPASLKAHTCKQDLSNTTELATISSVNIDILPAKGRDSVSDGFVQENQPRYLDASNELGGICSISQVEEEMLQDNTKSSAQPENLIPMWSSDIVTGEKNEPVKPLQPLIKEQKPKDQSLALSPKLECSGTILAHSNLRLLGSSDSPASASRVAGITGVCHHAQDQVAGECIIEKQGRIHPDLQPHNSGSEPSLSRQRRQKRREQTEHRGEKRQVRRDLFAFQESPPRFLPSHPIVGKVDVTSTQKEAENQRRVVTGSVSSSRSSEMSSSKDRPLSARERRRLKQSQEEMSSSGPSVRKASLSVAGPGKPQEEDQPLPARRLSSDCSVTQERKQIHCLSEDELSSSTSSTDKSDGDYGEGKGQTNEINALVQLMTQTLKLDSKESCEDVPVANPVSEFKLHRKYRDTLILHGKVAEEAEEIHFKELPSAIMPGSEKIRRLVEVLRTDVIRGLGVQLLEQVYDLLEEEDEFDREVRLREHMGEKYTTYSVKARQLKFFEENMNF

[8] = target: T8, panel of 442 kinases (Homo sapiens, UniProt Q86YV6); details: kinase MYLK4; for remaining activity at 1 µM: read-out: % of control at 1 µM
T8 construct: purchased Ambit Biosciences (scanMAXX KINOMEscan)
T8 sequence (Q86YV6 1-388): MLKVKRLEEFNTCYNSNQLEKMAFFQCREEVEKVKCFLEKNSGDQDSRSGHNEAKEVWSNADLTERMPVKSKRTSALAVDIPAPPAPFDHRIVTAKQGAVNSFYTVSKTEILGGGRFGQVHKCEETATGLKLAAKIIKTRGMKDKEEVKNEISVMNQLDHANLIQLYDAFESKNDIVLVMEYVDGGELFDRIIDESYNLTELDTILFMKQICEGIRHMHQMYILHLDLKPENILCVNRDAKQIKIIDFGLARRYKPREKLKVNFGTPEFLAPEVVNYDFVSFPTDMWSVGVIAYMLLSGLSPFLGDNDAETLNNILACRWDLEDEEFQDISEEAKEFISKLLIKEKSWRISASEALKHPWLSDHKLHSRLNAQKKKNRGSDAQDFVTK

[9] = target: T9, panel of 442 kinases (Homo sapiens, UniProt O15146); details: kinase MUSK; for remaining activity at 1 µM: read-out: % of control at 1 µM
T9 construct: purchased Ambit Biosciences (scanMAXX KINOMEscan)
T9 sequence (O15146 24-869): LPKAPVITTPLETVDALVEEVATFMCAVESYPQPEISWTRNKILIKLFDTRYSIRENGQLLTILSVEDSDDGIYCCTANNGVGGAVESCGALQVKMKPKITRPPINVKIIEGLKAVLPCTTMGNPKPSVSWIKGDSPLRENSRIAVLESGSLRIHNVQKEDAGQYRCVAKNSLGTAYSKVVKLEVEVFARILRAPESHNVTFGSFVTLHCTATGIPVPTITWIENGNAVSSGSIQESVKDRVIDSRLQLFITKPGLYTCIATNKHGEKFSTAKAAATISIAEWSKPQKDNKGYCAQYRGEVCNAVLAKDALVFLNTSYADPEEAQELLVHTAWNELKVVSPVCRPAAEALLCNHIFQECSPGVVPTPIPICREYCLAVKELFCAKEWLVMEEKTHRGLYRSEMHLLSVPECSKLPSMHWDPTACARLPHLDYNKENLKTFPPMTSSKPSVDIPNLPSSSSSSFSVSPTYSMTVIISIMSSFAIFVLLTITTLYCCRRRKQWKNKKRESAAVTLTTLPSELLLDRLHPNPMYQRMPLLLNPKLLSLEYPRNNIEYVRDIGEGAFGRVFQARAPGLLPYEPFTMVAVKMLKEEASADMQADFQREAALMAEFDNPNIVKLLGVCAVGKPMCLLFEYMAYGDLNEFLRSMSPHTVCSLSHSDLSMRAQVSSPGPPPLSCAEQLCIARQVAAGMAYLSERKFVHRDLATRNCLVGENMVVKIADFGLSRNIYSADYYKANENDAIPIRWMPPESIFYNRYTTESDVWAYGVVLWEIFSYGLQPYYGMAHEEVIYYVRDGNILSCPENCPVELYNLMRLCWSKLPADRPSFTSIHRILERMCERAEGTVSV

[10] = target: T10, panel of 442 kinases (Homo sapiens, UniProt Q9P1W9); details: kinase PIM2; for remaining activity at 1 µM: read-out: % of control at 1 µM
T10 construct: purchased Ambit Biosciences (scanMAXX KINOMEscan)
T10 sequence (Q9P1W9 whole entry): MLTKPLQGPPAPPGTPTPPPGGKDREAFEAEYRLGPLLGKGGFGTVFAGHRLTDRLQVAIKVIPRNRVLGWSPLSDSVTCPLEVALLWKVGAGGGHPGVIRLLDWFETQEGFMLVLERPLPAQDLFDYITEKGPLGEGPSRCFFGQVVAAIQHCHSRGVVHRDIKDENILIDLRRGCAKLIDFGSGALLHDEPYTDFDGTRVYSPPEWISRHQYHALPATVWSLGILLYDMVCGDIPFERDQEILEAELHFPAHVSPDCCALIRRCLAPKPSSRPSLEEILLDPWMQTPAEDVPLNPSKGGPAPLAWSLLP

[11] = 10 µM, read-out: % of control at 10 µM

SMILES | remaining activity at 1 µM [1] | remaining activity at 1 µM [2] | remaining activity at 1 µM [3] | remaining activity at 1 µM [4] | remaining activity at 1 µM [5] | remaining activity at 1 µM ([6]; ABL1-nonphosphorylated) | remaining activity at 1 µM ([6]; ABL1-phosphorylated) | remaining activity at 1 µM [7] | remaining activity at 1 µM [8] | remaining activity at 1 µM [9] | remaining activity at 1 µM [10] | further results
Nc1cc(C(F)(F)F)c(-c2cc(N3CCOCC3)nc(N3CCOCC3)n2)cn1 [Buparlisib] | 100% | 100% | 99% | 100% | 85% | 100% | 86% | 77% | 100% | 86% | 91% | remaining activity at 10 µM [1, 11]: 100%; remaining activity at 10 µM [2, 11]: 100%; remaining activity at 10 µM [3, 11]: 100%; remaining activity at 10 µM [4, 11]: 93%; remaining activity at 10 µM [5, 11]: 92%; remaining activity at 10 µM ([6]; ABL1-nonphosphorylated): 100%; remaining activity at 10 µM ([6]; ABL1-phosphorylated): 100%; remaining activity at 10 µM [7, 11]: 99%; remaining activity at 10 µM [8, 11]: 100%; remaining activity at 10 µM [9, 11]: 55%; remaining activity at 10 µM [10, 11]: 100%
Cn1c(=O)n(-c2ccc(C(C)(C)C#N)cc2)c2c3cc(-c4cnc5ccccc5c4)ccc3ncc21 [Dactolisib, 2-methyl-2-[4-(3-methyl-2-oxo-8-quinolin-3-yl-2,3-dihydroimidazo[4,5-c]quinolin-1-yl)-phenyl] propionitrile] |  | 78% | 100% | 100% | 100% | 100% | 81% | 88% | 95% | 100% | 100% | 
COc1ncc(-c2ccc3nccc(-c4ccnnc4)c3c2)cc1NS(=O)(=O)c1ccc(F)cc1F [Omipalisib] | 96% | 69% | 86% | 86% | 96% | 100% | 98% | 100% | 84% | 100% | 98% | 
FC(F)c1nc2ccccc2n1-c1nc(N2CCOCC2)nc(N2CCOCC2)n1 [ZSTK474, 2-(difluoromethyl)-1-[4,6-di(4-morpholinyl)-1,3,5-triazin-2-yl]-1H-benzimidazole] | 99% | 80% | 100% | 95% | 88% | 100% | 100% | 100% | 100% | 100% | 100% | 
